The results in this text go back to US5041436A, “1-arylsulphonyl-2-piperidinone derivatives, process and intermediates for the preparation thereof, their application as antispasmodics and compositions containing them” (Roussel Uclaf, priority 1989, dated 1991).

Some results are limits rather than exact numbers.

Assay [1] concerns the target histamine receptors. Kind of assay: Binding to other brain receptors: histamine. Conditions: negligible affinity. The text has this:
(§1) 1) Binding to different brain receptors.

The target in assay [2] is T1, adrenoreceptors beta2 (Homo sapiens, UniProt P07550).
T1 construct: from tissue
Put plainly: Binding to other brain receptors: adrenoreceptor beta2. Conditions: negligible affinity.
Source text: as §1

Assay [3] addresses T2, adrenoreceptors beta1 (Homo sapiens, UniProt P08588).
T2 construct: from tissue
Kind of assay: Binding to other brain receptors: adrenoreceptor beta1. To be noted: negligible affinity.
Source text: as §1

Assay [4] deals with T3, serotonin 5-HT2 receptors (Homo sapiens, UniProt P28223).
T3 construct: from tissue
Put plainly: Binding to other brain receptors: serotonin 5-HT2. To be noted: negligible affinity.
Source text: as §1

The subject of assay [5] is isolated guinea pig ileum, contractions induced by histamine. Kind of assay: Antagonist action on contractions induced by histamine, isolated guinea pig ileum. To be noted: histamine 1×10^-5 M; contact time one minute; 37° C.; read-out: Antagonist to different agents (IC50), Histam. The procedure:
(§2) The interaction of the compounds with different receptors was assessed on isolated guinea pig ileum according to the following method.
Guinea pig ileum segments measuring 2.5-3 cm were washed and immediately suspended in a bath containing 10 ml of Tyrode's solution at 37° C. aerated with a mixture of oxygen (95%) and carbon dioxide (5%). After a stabilization period of at least 30 minutes, the contractions were recorded, maintaining the preparation under constant tension of 1 g using a gauge connected to a polygraph. The agonist action was assessed by leaving the compound in contact with the isolated tissue for a period necessary for expressing the maximal contraction; the preparation was then washed with Tyrode's solution. The next dose was added to the bath only after the preparation had returned to its base line. As a reference product, arecoline was employed. The antagonist action was assessed on contractions induced by acetyl choline (1×10^-6 M), histamine (1×10^-5 M) and barium chloride (2×10^-4 M). […] The contact time before adding the agonist was one minute.
(§3) For each compound, the dose-response curves are obtained with 4 to 6 different concentrations and 3 to 5 independent tests. The agonist activity is expressed by pD2 (negative logarithm of the dose which produces 50% of maximum effect). The antagonist activity is expressed by IC50 (concentration inhibiting 50% of the maximal response).

Assay [6] has as its target adrenoreceptors alpha1. Kind of assay: Binding to other brain receptors: adrenoreceptor alpha1. To be noted: negligible affinity.
Source text: as §1

The target of assay [7] is benzodiazepines receptors. Put plainly: Binding to other brain receptors: benzodiazepines. To be noted: negligible affinity.
Source text: as §1

Assay [8] deals with dopamine receptors. Kind of assay: Binding to other brain receptors: dopamine. Conditions: negligible affinity.
Source text: as §1

The target in assay [9] is T4, Muscarinic receptor 1 (Rattus norvegicus, UniProt P08482).
T4 construct: cortices removed from the brains of male rats; from tissue; host or cells: rat brain cortex homogenate
T4 sequence (P08482 1-460): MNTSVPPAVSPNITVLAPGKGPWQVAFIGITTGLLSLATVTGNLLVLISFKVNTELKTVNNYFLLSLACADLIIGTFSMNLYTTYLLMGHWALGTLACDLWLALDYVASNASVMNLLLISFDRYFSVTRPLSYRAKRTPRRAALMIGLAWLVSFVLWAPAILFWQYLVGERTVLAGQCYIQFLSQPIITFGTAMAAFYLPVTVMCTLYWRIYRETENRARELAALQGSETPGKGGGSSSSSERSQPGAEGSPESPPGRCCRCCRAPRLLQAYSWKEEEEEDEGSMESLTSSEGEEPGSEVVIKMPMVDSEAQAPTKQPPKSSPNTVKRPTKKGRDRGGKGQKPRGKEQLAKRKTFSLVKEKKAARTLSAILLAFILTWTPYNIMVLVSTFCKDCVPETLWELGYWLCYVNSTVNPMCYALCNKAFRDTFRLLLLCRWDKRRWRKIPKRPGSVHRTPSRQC
Kind of assay: Binding to muscarinic receptor 1 ([^3 H]pirenzepine), rat cortex. To be noted: for IC50: 0.25 nM [^3 H]pirenzepine, 60 minutes at 25° C., pH 7.4, rat cortex, read-out: Affinity for M1 muscarinic receptors, [^3 H]pirenzepine, IC50; for affinity for the muscarinic receptor (in words): summary of Table 1. The protocol:
as §1
Preparation of this is carried out from cortices removed from the brains of male rats weighing 150 to 200 g (Iffa Credo), ground in a Polytron in a 10 mM Na/K buffer pH 7.4. After incubation (0.5 ml aliquots of homogenate) for 60 minutes at 25° C. in the presence of 0.25 nM [^3 H]pirenzepine, either alone, or with the test product, or with an excess of 10^-5 M pirenzepine (to determine the non-specifically bound radioactivity), the incubates are cooled and filtered.
The filtration is performed on Whatman GF/C filters prewashed in a 0.05% strength solution of polyethylenimine. The filters are rinsed with 3×5 ml of 10 mM Na/K phosphate buffer pH 7.4 and the measurements are then performed by liquid scintillation.
The results are expressed as an IC50 (concentration needed to inhibit by 50% the specifically bound radioactivity).

The target in assay [10] is T5, opiate receptors kappa (Homo sapiens, UniProt P41145).
T5 construct: from tissue
Kind of assay: Binding to other brain receptors: opiate kappa. Conditions: negligible affinity.
Source text: as §1

In assay [11] the target is adrenoreceptors alpha2. Kind of assay: Binding to other brain receptors: adrenoreceptor alpha2. Conditions: negligible affinity.
Source text: as §1

Assay [12] relates to isolated guinea pig ileum, contractions induced by barium chloride. Put plainly: Antagonist action on contractions induced by barium chloride, isolated guinea pig ileum. To be noted: barium chloride 2×10^-4 M; contact time one minute; 37° C.; read-out: Antagonist to different agents (IC50), BaCl2. The procedure: as §2
Guinea pig ileum segments measuring 2.5-3 cm were washed and immediately suspended in a bath containing 10 ml of Tyrode's solution at 37° C. aerated with a mixture of oxygen (95%) and carbon dioxide (5%). After a stabilization period of at least 30 minutes, the contractions were recorded, maintaining the preparation under constant tension of 1 g using a gauge connected to a polygraph. The agonist action was assessed by leaving the compound in contact with the isolated tissue for a period necessary for expressing the maximal contraction; the preparation was then washed with Tyrode's solution. The next dose was added to the bath only after the preparation had returned to its base line. As a reference product, arecoline was employed. The antagonist action was assessed on contractions induced by acetyl choline (1×10^-6 M), histamine (1×10^-5 M) and barium chloride (2×10^-4 M). Atropine, diphenhydramine and papaverine were emplohyed as reference products. The contact time before adding the agonist was one minute.
as §3

The target of assay [13] is serotonin 5-HT1 receptors. Kind of assay: Binding to other brain receptors: serotonin 5-HT1. Conditions: negligible affinity.
Source text: as §1

The target in assay [14] is GABA receptors. Kind of assay: Binding to other brain receptors: GABA. Conditions: negligible affinity.
Source text: as §1

T2 sequence (P08588 whole entry): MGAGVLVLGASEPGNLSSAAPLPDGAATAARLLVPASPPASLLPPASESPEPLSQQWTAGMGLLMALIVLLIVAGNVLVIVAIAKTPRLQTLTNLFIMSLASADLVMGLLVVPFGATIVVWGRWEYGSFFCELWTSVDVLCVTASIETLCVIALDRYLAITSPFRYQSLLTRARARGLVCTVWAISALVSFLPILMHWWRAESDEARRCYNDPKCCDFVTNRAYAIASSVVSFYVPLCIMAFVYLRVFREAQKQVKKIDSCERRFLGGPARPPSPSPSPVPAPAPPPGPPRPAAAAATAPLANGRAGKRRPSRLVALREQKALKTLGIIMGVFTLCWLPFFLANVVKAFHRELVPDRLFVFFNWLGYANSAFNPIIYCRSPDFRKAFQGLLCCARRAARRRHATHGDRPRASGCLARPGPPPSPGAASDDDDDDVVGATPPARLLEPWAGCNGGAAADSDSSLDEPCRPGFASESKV
T5 sequence (P41145 whole entry): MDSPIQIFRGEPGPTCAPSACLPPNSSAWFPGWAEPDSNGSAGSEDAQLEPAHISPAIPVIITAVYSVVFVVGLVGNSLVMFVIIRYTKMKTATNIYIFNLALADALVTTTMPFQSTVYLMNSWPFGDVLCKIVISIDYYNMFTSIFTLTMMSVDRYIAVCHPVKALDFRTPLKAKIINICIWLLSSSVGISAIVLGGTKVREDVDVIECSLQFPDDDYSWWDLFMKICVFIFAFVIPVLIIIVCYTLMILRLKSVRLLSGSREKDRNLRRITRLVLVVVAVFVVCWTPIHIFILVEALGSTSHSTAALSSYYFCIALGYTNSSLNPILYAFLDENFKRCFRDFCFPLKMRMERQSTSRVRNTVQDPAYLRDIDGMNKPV
T1 sequence (P07550 whole entry): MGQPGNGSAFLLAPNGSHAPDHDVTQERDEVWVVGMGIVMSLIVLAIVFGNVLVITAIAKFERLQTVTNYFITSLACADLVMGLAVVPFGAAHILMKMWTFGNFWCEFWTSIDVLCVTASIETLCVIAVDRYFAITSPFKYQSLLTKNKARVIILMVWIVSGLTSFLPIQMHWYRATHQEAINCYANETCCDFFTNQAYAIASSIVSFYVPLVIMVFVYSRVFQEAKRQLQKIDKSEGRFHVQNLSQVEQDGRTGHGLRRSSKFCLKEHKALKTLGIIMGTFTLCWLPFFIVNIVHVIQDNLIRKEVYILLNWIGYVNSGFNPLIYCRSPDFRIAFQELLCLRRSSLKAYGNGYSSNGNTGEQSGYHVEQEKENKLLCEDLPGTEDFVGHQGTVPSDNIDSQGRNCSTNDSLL
T3 sequence (P28223 whole entry): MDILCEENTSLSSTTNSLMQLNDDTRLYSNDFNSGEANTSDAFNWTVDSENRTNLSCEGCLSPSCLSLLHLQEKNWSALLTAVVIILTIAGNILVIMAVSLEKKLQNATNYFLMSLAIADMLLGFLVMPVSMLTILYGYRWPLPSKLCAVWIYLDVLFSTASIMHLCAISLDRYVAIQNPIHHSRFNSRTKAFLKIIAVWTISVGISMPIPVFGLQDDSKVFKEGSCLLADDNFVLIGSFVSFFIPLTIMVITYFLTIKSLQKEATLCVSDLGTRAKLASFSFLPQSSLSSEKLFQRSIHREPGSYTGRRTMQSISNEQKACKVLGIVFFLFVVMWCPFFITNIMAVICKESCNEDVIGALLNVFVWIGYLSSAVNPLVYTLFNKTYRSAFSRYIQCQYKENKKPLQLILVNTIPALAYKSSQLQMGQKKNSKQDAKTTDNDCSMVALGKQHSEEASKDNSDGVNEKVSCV

Consider `CCN(CC)c1ccc(S(=O)(=O)N2CCCCC2=O)cc1` [Example 2, 1-[4-(Diethylamino)benzenesulphonyl]-2-piperidinone], for which the 50% inhibitory concentration (IC50) in assay [1] is 5 to 10 µM; in [2], 5 to 10 µM; in assay [3], 5 to 10 µM; in [4], 5 to 10 µM; in assay [5], greater than 10 µM; in [6] it was 5 to 10 µM. Further, the IC50 in assay [7] was 5 to 10 µM; in assay [8], 5 to 10 µM; in assay [9] it was 0.314 µM; in assay [10], 5 to 10 µM; in assay [11], 5 to 10 µM; in assay [12], greater than 10 µM. The IC50 in [13] and in assay [14] was 5 to 10 µM each time. In addition, in [9], the “affinity for the muscarinic receptor (in words)” value (“affinity” below) is “noteworthy advantageous affinity for the muscarinic receptor, and mainly for the M1 type receptor”.

Turning to `O=C1CCCCN1S(=O)(=O)c1ccc(N2CCCCC2)cc1` [Example 4, 1-[4-(1-Piperidinyl)benzenesulphonyl] -2-piperidinone], the 50% inhibitory concentration (IC50) was 5 to 10 µM in assay [1]; 5 to 10 µM in [2]; 5 to 10 µM in assay [3]; 5 to 10 µM in assay [4]; greater than 10 µM in [5]; 5 to 10 µM in assay [6]. Further, the concentration for half-maximal inhibition (IC50) in [7] is 5 to 10 µM; in [8], 5 to 10 µM; in assay [9], 0.128 µM; in assay [10], 5 to 10 µM; in [11], 5 to 10 µM; in assay [12], greater than 10 µM. Moreover, the IC50 in [13] and in [14] was 5 to 10 µM in each case. Further, in assay [9], the “affinity” value was “noteworthy advantageous affinity for the muscarinic receptor, and mainly for the M1 type receptor”.

On to `O=C1CCCCN1S(=O)(=O)c1ccc(N2CCCCCC2)cc1` [Example 5, 1-[4-(1-Hexahydroazepinyl)benzenesulphonyl]-2-piperidinone], for which the IC50 in assay [1] was 5 to 10 µM; in assay [2], 5 to 10 µM; in assay [3], 5 to 10 µM; in assay [4], 5 to 10 µM; in assay [5], greater than 10 µM; in [6], 5 to 10 µM. The IC50 in assay [7] is 5 to 10 µM; in [8], 5 to 10 µM; in assay [9] it was 0.049 µM; in [10], 5 to 10 µM; in [11], 5 to 10 µM; in assay [12], greater than 10 µM. The IC50 in assay [13] and in [14] was 5 to 10 µM throughout. In addition, the “affinity” value in [9] was “noteworthy advantageous affinity for the muscarinic receptor, and mainly for the M1 type receptor”.
